Data on nine compounds can be found in ChEMBL document CHEMBL1143467, “Synthesis of potent and selective serotonin 5-HT1B receptor ligands” (Bioorg Med Chem Lett, 2005).

Some results are limits rather than exact numbers.

As usually defined, the Ki is a dissociation constant, usually derived from enzyme kinetics or from competition with a known ligand. Lower therefore signals tighter binding.

Assay [1] has as its target T1, Muscarinic acetylcholine receptor M4 (Homo sapiens, UniProt P08173).
T1 sequence (P08173 whole entry): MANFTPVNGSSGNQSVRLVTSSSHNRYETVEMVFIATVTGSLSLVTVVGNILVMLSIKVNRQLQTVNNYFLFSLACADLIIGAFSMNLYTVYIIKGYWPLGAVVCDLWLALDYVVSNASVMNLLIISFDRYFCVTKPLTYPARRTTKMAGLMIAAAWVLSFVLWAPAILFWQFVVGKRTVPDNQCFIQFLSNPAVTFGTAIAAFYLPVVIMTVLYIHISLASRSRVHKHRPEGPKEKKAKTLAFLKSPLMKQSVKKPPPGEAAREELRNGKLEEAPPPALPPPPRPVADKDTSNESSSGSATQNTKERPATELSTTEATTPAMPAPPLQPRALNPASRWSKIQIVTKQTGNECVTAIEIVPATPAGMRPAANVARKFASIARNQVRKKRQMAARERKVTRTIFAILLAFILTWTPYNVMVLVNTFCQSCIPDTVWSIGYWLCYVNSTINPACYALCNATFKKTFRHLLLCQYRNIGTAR
The experiment in a line: Affinity towards cloned Muscarinic acetylcholine receptor M4.

The target in assay [2] is 5-hydroxytryptamine receptor 1D (Homo sapiens, UniProt P28221). Briefly: In vitro binding affinity towards cloned human 5-HT1D receptor using [3H]5-carboximidotryptamine as radioligand.
5-hydroxytryptamine receptor 1D, sequence (P28221 whole entry): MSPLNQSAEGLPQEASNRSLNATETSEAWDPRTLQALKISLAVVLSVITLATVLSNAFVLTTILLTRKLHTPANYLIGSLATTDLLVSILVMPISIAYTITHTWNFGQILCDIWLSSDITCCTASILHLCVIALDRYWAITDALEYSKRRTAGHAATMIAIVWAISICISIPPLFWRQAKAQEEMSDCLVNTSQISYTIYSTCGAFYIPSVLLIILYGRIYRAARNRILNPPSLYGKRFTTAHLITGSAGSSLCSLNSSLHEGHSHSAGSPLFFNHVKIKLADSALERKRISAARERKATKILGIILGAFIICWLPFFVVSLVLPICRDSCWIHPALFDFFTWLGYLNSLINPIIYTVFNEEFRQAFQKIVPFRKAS
Assay [3] concerns the target 5-hydroxytryptamine receptor 2A (Homo sapiens, UniProt P28223). Briefly: In vitro binding affinity towards cloned human 5-HT2A receptor using [3H]5-carboximidotryptamine as radioligand.
Assay [4] has as its target T2, 5-hydroxytryptamine receptor 2C (Homo sapiens, UniProt P28335).
T2 sequence (P28335 whole entry): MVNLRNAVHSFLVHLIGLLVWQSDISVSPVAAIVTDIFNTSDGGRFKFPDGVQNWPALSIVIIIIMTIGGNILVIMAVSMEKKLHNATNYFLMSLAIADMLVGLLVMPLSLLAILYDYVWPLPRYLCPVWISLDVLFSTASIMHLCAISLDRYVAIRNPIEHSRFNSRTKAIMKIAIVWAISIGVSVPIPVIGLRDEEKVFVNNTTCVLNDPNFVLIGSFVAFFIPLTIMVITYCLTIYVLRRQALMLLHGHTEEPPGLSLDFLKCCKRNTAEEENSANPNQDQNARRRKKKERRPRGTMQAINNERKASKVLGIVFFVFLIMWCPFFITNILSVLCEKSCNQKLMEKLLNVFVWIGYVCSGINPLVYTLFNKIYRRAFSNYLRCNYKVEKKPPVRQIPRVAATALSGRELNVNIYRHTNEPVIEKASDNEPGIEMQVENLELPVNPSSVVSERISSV
Briefly: In vitro binding affinity towards cloned human 5-HT2C receptor using [3H]5-carboximidotryptamine as radioligand.

Another assay has as its target Mu-type opioid receptor (Homo sapiens, UniProt P35372). The experiment in a line: Affinity towards cloned Opioid receptor mu 1.
In a further assay the target is Histamine H1 receptor (Homo sapiens, UniProt P35367). Briefly: Affinity towards cloned Histamine H1 receptor.
Histamine H1 receptor, sequence (P35367 whole entry): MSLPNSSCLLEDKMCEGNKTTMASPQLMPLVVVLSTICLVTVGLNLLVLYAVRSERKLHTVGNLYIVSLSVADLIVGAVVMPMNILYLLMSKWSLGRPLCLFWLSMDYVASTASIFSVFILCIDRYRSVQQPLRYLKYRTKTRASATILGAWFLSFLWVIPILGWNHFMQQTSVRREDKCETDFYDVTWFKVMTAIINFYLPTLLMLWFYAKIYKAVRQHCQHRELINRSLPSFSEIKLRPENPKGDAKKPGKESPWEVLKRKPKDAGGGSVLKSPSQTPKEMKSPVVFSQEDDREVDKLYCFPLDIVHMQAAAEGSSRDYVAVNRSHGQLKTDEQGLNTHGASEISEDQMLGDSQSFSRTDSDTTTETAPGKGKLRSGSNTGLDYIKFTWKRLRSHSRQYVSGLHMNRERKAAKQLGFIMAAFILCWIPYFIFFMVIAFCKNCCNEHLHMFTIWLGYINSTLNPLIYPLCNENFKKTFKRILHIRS
Assay [5] deals with 5-hydroxytryptamine receptor 6 (Homo sapiens, UniProt P50406). The experiment in a line: In vitro binding affinity towards cloned human 5-HT6 receptor using [3H]5-carboximidotryptamine as radioligand.
5-hydroxytryptamine receptor 6, sequence (P50406 whole entry): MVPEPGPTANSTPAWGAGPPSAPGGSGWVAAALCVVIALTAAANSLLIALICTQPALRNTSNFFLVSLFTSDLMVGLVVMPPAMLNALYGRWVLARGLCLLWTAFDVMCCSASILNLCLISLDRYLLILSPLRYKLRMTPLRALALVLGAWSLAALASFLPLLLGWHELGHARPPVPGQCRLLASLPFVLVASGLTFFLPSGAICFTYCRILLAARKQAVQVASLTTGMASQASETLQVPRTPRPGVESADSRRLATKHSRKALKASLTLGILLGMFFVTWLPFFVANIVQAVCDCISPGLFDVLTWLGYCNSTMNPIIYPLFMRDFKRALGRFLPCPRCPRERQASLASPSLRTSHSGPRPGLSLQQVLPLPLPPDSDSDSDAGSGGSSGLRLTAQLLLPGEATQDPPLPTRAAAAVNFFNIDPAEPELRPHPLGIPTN
Assay [6] has as its target T3, 5-hydroxytryptamine receptor 1A (Homo sapiens, UniProt P08908).
T3 sequence (P08908 whole entry): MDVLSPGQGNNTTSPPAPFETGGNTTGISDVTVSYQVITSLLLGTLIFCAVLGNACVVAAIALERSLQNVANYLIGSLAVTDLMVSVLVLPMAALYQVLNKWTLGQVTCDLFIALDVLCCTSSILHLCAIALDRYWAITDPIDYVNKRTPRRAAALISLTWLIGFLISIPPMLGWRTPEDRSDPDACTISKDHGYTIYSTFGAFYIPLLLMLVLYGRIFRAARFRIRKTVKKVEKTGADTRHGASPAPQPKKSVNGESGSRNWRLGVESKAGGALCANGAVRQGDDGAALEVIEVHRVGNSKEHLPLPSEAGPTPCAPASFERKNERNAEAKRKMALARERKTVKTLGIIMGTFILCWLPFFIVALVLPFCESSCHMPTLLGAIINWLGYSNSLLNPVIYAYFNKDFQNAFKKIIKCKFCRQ
Briefly: Affinity towards cloned human 5-hydroxytryptamine 1A receptor.

Mu-type opioid receptor, sequence (P35372 whole entry): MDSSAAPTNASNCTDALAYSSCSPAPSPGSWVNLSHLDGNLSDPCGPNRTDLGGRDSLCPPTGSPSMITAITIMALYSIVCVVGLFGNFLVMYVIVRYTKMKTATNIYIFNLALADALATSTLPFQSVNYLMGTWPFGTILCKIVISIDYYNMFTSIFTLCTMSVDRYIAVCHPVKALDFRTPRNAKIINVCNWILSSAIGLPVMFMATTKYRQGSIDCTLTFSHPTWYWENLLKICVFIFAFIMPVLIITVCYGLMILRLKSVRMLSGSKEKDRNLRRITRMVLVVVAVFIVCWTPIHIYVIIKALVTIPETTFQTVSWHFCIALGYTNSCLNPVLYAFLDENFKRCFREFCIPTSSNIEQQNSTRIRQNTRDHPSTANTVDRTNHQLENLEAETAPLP
5-hydroxytryptamine receptor 2A, sequence (P28223 whole entry): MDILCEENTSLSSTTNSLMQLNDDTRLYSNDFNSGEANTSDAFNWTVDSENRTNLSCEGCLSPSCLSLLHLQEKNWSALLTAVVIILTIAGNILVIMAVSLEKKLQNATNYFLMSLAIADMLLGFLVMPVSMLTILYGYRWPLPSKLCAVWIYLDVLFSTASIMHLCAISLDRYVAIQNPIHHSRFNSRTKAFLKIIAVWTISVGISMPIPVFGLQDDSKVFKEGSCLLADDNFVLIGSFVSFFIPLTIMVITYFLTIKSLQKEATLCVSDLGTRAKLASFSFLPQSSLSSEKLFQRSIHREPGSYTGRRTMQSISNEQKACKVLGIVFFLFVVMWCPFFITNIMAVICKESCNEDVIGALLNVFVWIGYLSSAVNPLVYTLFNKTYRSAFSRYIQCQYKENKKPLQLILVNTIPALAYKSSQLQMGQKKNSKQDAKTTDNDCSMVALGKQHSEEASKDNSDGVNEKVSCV

As for `COc1ccc(NC(=O)N2CCN(c3ccc(F)cc3)CC2)cc1N1CCN(C)CC1`, the Ki in assay [1] is above 10 µM; in assay [2], 168 nM; in assay [3] it was 4450 nM; in assay [4], above 10000 nM; on Mu-type opioid receptor, above 10 µM; at Histamine H1 receptor, above 10 µM. The same compound had a Ki in assay [5] above 10000 nM.
With `COc1ccccc1N1CCC(C(=O)Nc2ccc(OC)c(N3CCN(C)CC3)c2)CC1`, the Ki in assay [1] was above 10 µM; in assay [2], 15.4 nM; in assay [3], above 10000 nM; in assay [4], 9950 nM; on Mu-type opioid receptor, above 10 µM; on Histamine H1 receptor it was above 10 µM.
In the case of `COc1ccc(NC(=O)N2CCN(c3ccccc3F)CC2)cc1N1CCN(C)CC1`, the inhibition constant Ki in assay [1] was above 10 µM; in assay [2], 103 nM; in assay [3], above 10000 nM; in assay [4] it was 1080 nM; at Mu-type opioid receptor, above 10 µM; on Histamine H1 receptor it was above 10 µM. In assay [5], this compound came in with a Ki of 841 nM.
As for `COc1ccc(NC(=O)N2CCN(c3ccc(C(F)(F)F)cc3)CC2)cc1N1CCN(C)CC1`, the Ki is above 10 µM in assay [1]; 345 nM in assay [2]; 614 nM in assay [3]; 2830 nM in assay [4]; above 10 µM at Mu-type opioid receptor; above 10 µM at Histamine H1 receptor. In assay [5], this compound returned a Ki of 2860 nM.
As for `COc1ccc(NC(=O)N2CCN(c3ccc(-c4ccccc4)cc3)CC2)cc1N1CCN(C)CC1`, the Ki is above 10 µM in assay [1]; 209 nM in assay [2]; 171 nM in assay [3]; 6.5 nM in assay [4]; above 10 µM on Mu-type opioid receptor; above 10 µM at Histamine H1 receptor. In assay [5], this compound displayed a Ki of 1430 nM.
Turning to `COc1ccc(NC(=O)N2CCN(c3ccc(SC)cc3)CC2)cc1N1CCN(C)CC1`, the Ki in assay [1] was above 10 µM; in assay [2], 329 nM; in assay [3] it was 1340 nM; in assay [4], 1140 nM; on Mu-type opioid receptor, above 10 µM; on Histamine H1 receptor, above 10 µM. Moreover, the Ki in assay [5] is above 10000 nM.
As for `COc1ccc(NC(=O)N2CCN(c3ccccc3Cl)CC2)cc1N1CCN(C)CC1`, the Ki is above 10 µM in assay [1]; 34.7 nM in assay [2]; 5990 nM in assay [3]; 1240 nM in assay [4]; above 10 µM on Mu-type opioid receptor; above 10 µM at Histamine H1 receptor. Further, the inhibition constant (Ki) in assay [5] came out at 469 nM.
`COc1ccc(NC(=O)N2CCN(c3ccc(Cl)cc3)CC2)cc1N1CCN(C)CC1`: the Ki in assay [1] was above 10 µM; in assay [2] it was 6.51 nM; in assay [3], 1010 nM; in assay [4], 267 nM; on Mu-type opioid receptor, above 10 µM; on Histamine H1 receptor, above 10 µM. Further, affinity in assay [5] was put at a Ki of 5090 nM.
On to `COc1ccc(NC(=O)c2ccc(-c3ccc(-c4noc(C)n4)cc3C)cc2)cc1N1CCN(C)CC1` [GR-127935], for which the Ki in assay [1] was above 10 µM; in assay [6] it was 70 nM; in assay [3], 42.7 nM; in assay [4] it was 105 nM; at Mu-type opioid receptor, above 10 µM; on Histamine H1 receptor, above 10 µM. This compound showed an inhibition constant Ki in assay [5] above 10000 nM.
